Experimental data: PubChem BioAssay (NCI)
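Growth conditions: 96-well plates. Treatment: test compound, 48 hours, 5 concentrations. Analysis: linear interpolation between bracketing concentrations; unreached endpoints set to highest concentration. Abbreviation: GI50, concentration required for 50% inhibition of growth. The concentration for full growth arrest is given as TGI.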

Experiments:
Assay in all cases: growth of human tumour cells (NCI), 48 h
SNB-75 CNS = system: SNB-75 CNS
IGROV1 ovarian = system: IGROV1 ovarian
EKVX NSCLC = system: EKVX NSCLC
TK-10 renal = system: TK-10 renal
SF-268 CNS = system: SF-268 CNS
SF-295 CNS = system: SF-295 CNS
OVCAR-5 ovarian = system: OVCAR-5 ovarian
HOP-62 NSCLC = system: HOP-62 NSCLC
RPMI-8226 leukemia = system: RPMI-8226 leukemia
T-47D breast = system: T-47D breast
RXF 393 renal = system: RXF 393 renal
ACHN renal = system: ACHN renal
SK-MEL-2 melanoma = system: SK-MEL-2 melanoma
NCI-H522 lung = system: NCI-H522 lung
SK-MEL-28 melanoma = system: SK-MEL-28 melanoma
HCT-15 colon = system: HCT-15 colon

`COc1ccccc1CC(=O)C(O)(C(F)(F)F)C(F)(F)F` was tested, and the TGI (SNB-75 CNS) was > 100 µM, the TGI (IGROV1 ovarian) was > 100 µM and the TGI (EKVX NSCLC) was > 100 µM. The TGI (TK-10 renal) was > 100 µM, the TGI (SF-268 CNS) was > 100 µM and the TGI (SF-295 CNS) was > 100 µM. The TGI (OVCAR-5 ovarian) was > 100 µM, the TGI (HOP-62 NSCLC) was > 100 µM and the TGI (RPMI-8226 leukemia) was > 100 µM. The TGI (T-47D breast) was > 100 µM, the TGI (RXF 393 renal) was > 100 µM and the TGI (ACHN renal) was > 100 µM. For the same molecule, the TGI (SK-MEL-2 melanoma) was > 100 µM, the TGI (NCI-H522 lung) was > 100 µM and the TGI (SK-MEL-28 melanoma) was > 100 µM. For the same molecule, the TGI (HCT-15 colon) was > 100 µM.

In the case of `COC(=O)c1cccc(C)c1C1CN=NC12Cc1cc(C)cc(C)c1C2=O` (centres undefined), the TGI (SNB-75 CNS) is reported as 83.1 µM, the TGI (IGROV1 ovarian) is reported as > 100 µM and the TGI (EKVX NSCLC) is reported as 90.3 µM. The TGI (TK-10 renal) was > 100 µM, the TGI (SF-268 CNS) was > 100 µM and the TGI (OVCAR-5 ovarian) was > 100 µM. For the same molecule, the TGI (HOP-62 NSCLC) was > 100 µM, the TGI (RPMI-8226 leukemia) was > 100 µM and the TGI (T-47D breast) was 53.7 µM. The TGI (RXF 393 renal) was > 100 µM, the TGI (ACHN renal) was > 100 µM and the TGI (NCI-H522 lung) was > 100 µM. For the same molecule, the TGI (SK-MEL-28 melanoma) was > 100 µM and the TGI (HCT-15 colon) was > 100 µM.

With `Cc1ccc(S(=O)(=O)N2C3C=CC(C3)[C@@H]2C(Cl)(Cl)Cl)cc1` (some centres undefined) the TGI (SNB-75 CNS) was 51.2 µM, the TGI (IGROV1 ovarian) was > 71 µM and the TGI (EKVX NSCLC) was 55 µM. For the same molecule, the TGI (TK-10 renal) was > 100 µM, the TGI (SF-268 CNS) was 46.9 µM and the TGI (SF-295 CNS) was 35.1 µM. For the same molecule, the TGI (HOP-62 NSCLC) was 41.5 µM, the TGI (RPMI-8226 leukemia) was 32.1 µM and the TGI (T-47D breast) was > 100 µM. It also gave a GI50 (RXF 393 renal) of 19.2 µM, a TGI (RXF 393 renal) of 41.4 µM and a TGI (ACHN renal) of 53.1 µM. It also gave a TGI (SK-MEL-2 melanoma) of 35.5 µM, a TGI (NCI-H522 lung) of 41.3 µM and a TGI (SK-MEL-28 melanoma) of 57.2 µM. The TGI (HCT-15 colon) was 62.6 µM.

In the case of `O=C(C(=O)n1ccc2ccccc21)n1ccc2ccccc21`, the TGI (SNB-75 CNS) is reported as 56 µM, the TGI (IGROV1 ovarian) is reported as 53.1 µM and the TGI (EKVX NSCLC) is reported as > 100 µM. For the same molecule, the TGI (TK-10 renal) was > 100 µM, the TGI (SF-268 CNS) was > 100 µM and the TGI (SF-295 CNS) was > 100 µM. For the same molecule, the TGI (OVCAR-5 ovarian) was > 100 µM, the TGI (HOP-62 NSCLC) was > 100 µM and the TGI (RPMI-8226 leukemia) was > 100 µM. The TGI (T-47D breast) was > 100 µM, the TGI (RXF 393 renal) was > 100 µM and the TGI (ACHN renal) was > 100 µM. The TGI (SK-MEL-2 melanoma) was > 100 µM, the TGI (NCI-H522 lung) was > 100 µM and the TGI (SK-MEL-28 melanoma) was > 100 µM. The TGI (HCT-15 colon) was > 100 µM.

With `CC1=C/C(=N\NC(N)=S)C(C(O)(C(F)(F)F)C(F)(F)F)C(C)(C)C1` (centres undefined) the TGI (SNB-75 CNS) was > 10 µM, the TGI (IGROV1 ovarian) was > 10 µM and the TGI (EKVX NSCLC) was > 10 µM. For the same molecule, the TGI (TK-10 renal) was > 10 µM, the TGI (SF-268 CNS) was > 10 µM and the TGI (SF-295 CNS) was > 10 µM. The TGI (OVCAR-5 ovarian) was > 10 µM, the TGI (HOP-62 NSCLC) was > 10 µM and the TGI (RPMI-8226 leukemia) was > 10 µM. The TGI (T-47D breast) was > 10 µM, the TGI (RXF 393 renal) was > 10 µM and the TGI (ACHN renal) was > 10 µM. For the same molecule, the TGI (SK-MEL-2 melanoma) was > 10 µM, the TGI (NCI-H522 lung) was > 10 µM and the TGI (SK-MEL-28 melanoma) was > 10 µM. For the same molecule, the TGI (HCT-15 colon) was > 10 µM.

In the case of `CCOC(=O)/C(C#N)=C/c1coc2cc(C)cc(C)c2c1=O`, the TGI (SNB-75 CNS) is reported as > 100 µM, the TGI (IGROV1 ovarian) is reported as > 100 µM and the TGI (EKVX NSCLC) is reported as > 100 µM. The TGI (TK-10 renal) was > 100 µM, the TGI (SF-268 CNS) was > 100 µM and the TGI (SF-295 CNS) was > 100 µM. The TGI (OVCAR-5 ovarian) was > 100 µM, the TGI (HOP-62 NSCLC) was > 100 µM and the TGI (RPMI-8226 leukemia) was > 100 µM. The TGI (T-47D breast) was > 100 µM, the TGI (RXF 393 renal) was > 100 µM and the TGI (ACHN renal) was > 100 µM. The TGI (NCI-H522 lung) was > 100 µM, the TGI (SK-MEL-28 melanoma) was > 100 µM and the TGI (HCT-15 colon) was > 100 µM.

`CCOC(=O)c1cn2c(n1)sc1cc(F)ccc12` was tested, and the TGI (SNB-75 CNS) was > 100 µM, the TGI (IGROV1 ovarian) was > 100 µM and the TGI (EKVX NSCLC) was > 100 µM. The TGI (TK-10 renal) was > 100 µM, the TGI (SF-268 CNS) was > 100 µM and the TGI (SF-295 CNS) was > 100 µM. For the same molecule, the TGI (OVCAR-5 ovarian) was > 100 µM, the TGI (HOP-62 NSCLC) was > 100 µM and the TGI (RPMI-8226 leukemia) was > 100 µM. For the same molecule, the TGI (T-47D breast) was > 100 µM, the TGI (RXF 393 renal) was > 100 µM and the TGI (ACHN renal) was > 100 µM. For the same molecule, the TGI (SK-MEL-2 melanoma) was > 100 µM, the TGI (NCI-H522 lung) was > 100 µM and the TGI (SK-MEL-28 melanoma) was > 100 µM. The TGI (HCT-15 colon) was > 100 µM.

`CCOC(=O)CCCSCCCC(=O)CCCSCCCC(=O)OCC` was tested, and the TGI (SNB-75 CNS) was > 100 µM, the TGI (IGROV1 ovarian) was > 100 µM and the TGI (EKVX NSCLC) was > 100 µM. The TGI (TK-10 renal) was > 100 µM, the TGI (SF-268 CNS) was > 100 µM and the TGI (SF-295 CNS) was > 100 µM. For the same molecule, the TGI (OVCAR-5 ovarian) was > 100 µM, the TGI (HOP-62 NSCLC) was > 100 µM and the TGI (T-47D breast) was > 100 µM. For the same molecule, the TGI (NCI-H522 lung) was > 100 µM, the TGI (SK-MEL-28 melanoma) was > 100 µM and the TGI (HCT-15 colon) was > 100 µM.

With `COc1ccc(S(=O)(=O)n2c3c(c4ccccc42)[C@@H]2[C@@H](CCCN2C(=O)CS(=O)c2ccc(C)cc2)[C@H](Cl)C3)cc1` (some centres undefined) the TGI (SNB-75 CNS) was > 100 µM, the TGI (IGROV1 ovarian) was > 100 µM and the TGI (EKVX NSCLC) was > 100 µM. For the same molecule, the TGI (TK-10 renal) was > 100 µM, the TGI (SF-268 CNS) was > 100 µM and the TGI (SF-295 CNS) was > 100 µM. The TGI (OVCAR-5 ovarian) was > 100 µM, the TGI (HOP-62 NSCLC) was > 100 µM and the TGI (T-47D breast) was > 100 µM. The TGI (RXF 393 renal) was > 100 µM, the TGI (SK-MEL-2 melanoma) was > 100 µM and the TGI (NCI-H522 lung) was > 100 µM. The TGI (SK-MEL-28 melanoma) was > 100 µM and the TGI (HCT-15 colon) was > 100 µM.

For `Cc1[nH]c(=O)nc2sc(=NC3CCCCC3)n(C3CCCCC3)c(=O)c12`, the TGI (SNB-75 CNS) was > 100 µM, the TGI (IGROV1 ovarian) was > 100 µM and the TGI (EKVX NSCLC) was > 100 µM. For the same molecule, the TGI (TK-10 renal) was > 100 µM, the TGI (SF-295 CNS) was > 100 µM and the TGI (OVCAR-5 ovarian) was > 100 µM. The TGI (HOP-62 NSCLC) was > 100 µM, the TGI (RPMI-8226 leukemia) was > 100 µM and the TGI (T-47D breast) was > 100 µM. The TGI (ACHN renal) was > 100 µM, the TGI (SK-MEL-2 melanoma) was > 100 µM and the TGI (NCI-H522 lung) was > 100 µM. For the same molecule, the TGI (SK-MEL-28 melanoma) was > 100 µM and the TGI (HCT-15 colon) was > 100 µM.

`CSC(=O)c1sc(SC)[n+](-c2ccccc2)c1O` showed a TGI (SNB-75 CNS) of 27.2 µM, a TGI (IGROV1 ovarian) of 37.2 µM and a TGI (TK-10 renal) of 40.3 µM. For the same molecule, the TGI (SF-268 CNS) was 31.2 µM, the TGI (SF-295 CNS) was 32 µM and the TGI (OVCAR-5 ovarian) was 49.6 µM. The TGI (HOP-62 NSCLC) was 32.1 µM, the TGI (RPMI-8226 leukemia) was > 100 µM and the TGI (T-47D breast) was 29.5 µM. For the same molecule, the TGI (RXF 393 renal) was 28 µM, the TGI (ACHN renal) was > 100 µM and the TGI (SK-MEL-2 melanoma) was 53.1 µM. It also gave a TGI (NCI-H522 lung) of 24.8 µM, a TGI (SK-MEL-28 melanoma) of 34.9 µM and a TGI (HCT-15 colon) of 54.3 µM.

In the case of `COc1ccc(C(C)NNC(=O)c2ccncc2)cc1OC` (centres undefined), the TGI (SNB-75 CNS) is reported as > 100 µM, the TGI (IGROV1 ovarian) is reported as > 100 µM and the TGI (EKVX NSCLC) is reported as > 100 µM. For the same molecule, the TGI (TK-10 renal) was > 100 µM, the TGI (SF-268 CNS) was > 100 µM and the TGI (SF-295 CNS) was > 100 µM. The TGI (OVCAR-5 ovarian) was > 100 µM, the TGI (HOP-62 NSCLC) was > 100 µM and the TGI (RPMI-8226 leukemia) was > 100 µM. The TGI (T-47D breast) was > 100 µM, the TGI (RXF 393 renal) was > 100 µM and the TGI (ACHN renal) was > 100 µM. The TGI (SK-MEL-2 melanoma) was > 100 µM, the TGI (SK-MEL-28 melanoma) was > 100 µM and the TGI (HCT-15 colon) was > 100 µM.
